According to patent US6737383B1, “Herbicidal oxadiazolidines” (priority 1999, dated 2004):

Tests used:
Green foxtail [1] = experiment: Test D green foxtail; format: in vivo; conditions: Rate 64 g/ha, Postemergence; 0 to 100 scale, 0 no injury, 100 complete control
guineagrass = experiment: Test D guineagrass; format: in vivo, Panicum maximum; conditions: Rate 64 g/ha, Postemergence; 0 to 100 scale, 0 no injury, 100 complete control
Green foxtail [2] = experiment: Test D green foxtail; format: in vivo; conditions: Rate 64 g/ha, Postemergence; 0 to 100 scale, 0 no injury, 100 complete control; remark: listed apart in the source
Johnson grass = experiment: Test D Johnson grass; format: in vivo, Sorghum halepense; conditions: Rate 64 g/ha, Postemergence; 0 to 100 scale, 0 no injury, 100 complete control
goosegrass = experiment: Test D goosegrass; format: in vivo, Eleusine indica; conditions: Rate 64 g/ha, Postemergence; 0 to 100 scale, 0 no injury, 100 complete control
common ragweed [3] = experiment: Test D common ragweed; format: in vivo, Ambrosia elatior; conditions: Rate 64 g/ha, Postemergence; 0 to 100 scale, 0 no injury, 100 complete control
crabgrass = experiment: Test A crabgrass; format: in vivo, Digitaria spp.; conditions: 0 to 10 scale where 0 is no effect and 10 is complete control
Method: Seeds of barnyardgrass (Echinochloa crus-galli), crabgrass (Digitaria spp.), morningglory (Ipomoea spp.), and velvetleaf (Abutilon theophrasti) were planted into a sandy loam soil and treated preemergence by soil drench with test chemicals formulated in a non-phytotoxic solvent mixture which includes a surfactant At the same time, these crop and weed species were also treated postemergence sprayed to runoff, with test chemicals formulated in the same manner.
Plants ranged in height from two to eighteen cm and were in the one to two leaf stage for the postemergence treatment. Treated plants and untreated controls were maintained in a greenhouse for approximately eleven days, after which all treated plants were compared to untreated controls and visually evaluated for injury. Plant response ratings, summarized in Table A, are based on a 0 to 10 scale where 0 is no effect and 10 is complete control.

large crabgrass = experiment: Test C postemergence large crabgrass; format: in vivo, Digitaria sanguinalis; conditions: 0 to 100 scale, 0 no effect, 100 complete control
Outline: (§1)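 Compounds in a non-phytotoxic solvent mixture with surfactant were sprayed postemergence on greenhouse-grown plants sized for treatment, in 60:40 sandy loam soil:potting mix. After about 14 to 21 days, injury was rated visually against untreated controls on a 0–100 scale (0 no effect, 100 complete control).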

redroot pigweed = experiment: Test C postemergence redroot pigweed; format: in vivo, Amaranthus retroflexus; conditions: 0 to 100 scale, 0 no effect, 100 complete control
Method: (§2) Compounds evaluated in this test were formulated in a non-phytotoxic solvent mixture which included a surfactant and applied to plants that were grown for various periods of time before treatment (postemergence application). A mixture of sandy loam soil and greenhouse potting mix in a 60:40 ratio was used for the postemergence test.
(§3) Plantings of these crops and weed species were adjusted to produce plants of appropriate size for the postemergence test. All plant species were grown using normal greenhouse practices. Crop and weed species include arrowleaf sida (Sida rhombifolia), barnyardgrass (Echinochloa crus-galli), cocklebur (Xanthium strumarium), common ragweed (Ambrosia elatior), corn (Zea mays), cotton (Gossypium hirsutum), eastern black nightshade (Solanum ptycanthum), fall panicum (Panicum dichotomiflorum), field bindweed (Convolvulus arvensis), giant foxtail (Setaria faberii), hairy beggarticks (Bidens pilosa), ivyleaf morningglory (Ipomoea hederacea), johnsongrass (Sorghum halepense), ladysthumb smartweed (Polygonum persicaria), lambsquarters (Chenopodium album), large crabgrass (Digitaria sanguinalis), purple nutsedge (Cyperus rotundus), redroot pigweed (Amaranthus retroflexus), soybean (Glycine max), surinam grass (Brachiaria decumbens), velvetleaf (Abutilon theophrasti) and wild poinsettia (Euphorbia heterophylla).
(§4) Treated plants and untreated controls were maintained in a greenhouse for approximately 14, to 21 days, after which all treated plants were compared to untreated controls and visually evaluated. Plant response ratings, summarized in Table C, were based upon a 0 to 100 scale where 0 was no effect and 100 was complete control. A dash response (−) means no test result.

common ragweed [4] = experiment: Test C postemergence common ragweed; format: in vivo, Ambrosia elatior; conditions: 0 to 100 scale, 0 no effect, 100 complete control
Outline: as §1

corn = experiment: Test C postemergence corn; format: in vivo, Zea mays; conditions: 0 to 100 scale, 0 no effect, 100 complete control
Method: as §2, §3, §4

eastern black nightshade = experiment: Test C postemergence eastern black nightshade; format: in vivo, Solanum ptycanthum; conditions: 0 to 100 scale, 0 no effect, 100 complete control
Outline: as §1

surinam grass = experiment: Test C postemergence surinam grass; format: in vivo, Brachiaria decumbens; conditions: 0 to 100 scale, 0 no effect, 100 complete control
Method: as §2, §3, §4

fall panicum = experiment: Test C postemergence fall panicum; format: in vivo, Panicum dichotomiflorum; conditions: 0 to 100 scale, 0 no effect, 100 complete control
Method: as §2, §3, §4

barnyardgrass = experiment: Test C postemergence barnyardgrass; format: in vivo, Echinochloa crus-galli; conditions: 0 to 100 scale, 0 no effect, 100 complete control
Outline: as §1

soybean = experiment: Test C postemergence soybean; format: in vivo, Glycine max; conditions: 0 to 100 scale, 0 no effect, 100 complete control
Method: as §2, §3, §4

purple nutsedge = experiment: Test C postemergence purple nutsedge; format: in vivo, Cyperus rotundus; conditions: 0 to 100 scale, 0 no effect, 100 complete control
Outline: as §1

lambsquarters = experiment: Test C postemergence lambsquarters; format: in vivo, Chenopodium album; conditions: 0 to 100 scale, 0 no effect, 100 complete control
Method: as §2, §3, §4

## CC(C)Cn1c(=O)on(C(=O)N(c2ccc(F)cc2)C(C)C)c1=O [Compound 169]
Green foxtail [1]
  Green foxtail plant response rating: 100
guineagrass
  Guineagrass plant response rating: 0
  Plant response rating, Guineagrass: 100
Green foxtail [2]
  Plant response rating, Green foxtail: 100
Johnson grass
  Plant response rating, Johnsongrass: 0
goosegrass
  Plant response rating, Goosegrass: 100
Common ragweed [3]
  Plant response rating, C. ragweed: 0

## CC(C)Oc1cc(-n2c(=O)on(C(=O)N(c3ccc(F)cc3)C(C)C)c2=O)c(Cl)cc1Cl [Compound 43]
crabgrass; Postemergence, Rate 1000 g/ha
  Plant response rating, Crabgrass: 0
crabgrass; Pre-emergence, Rate 2000 g/ha
  Plant response rating, Crabgrass: 1

## CC(C)N(C(=O)n1oc(=O)n(Cc2cccs2)c1=O)c1ccc(F)cc1 [Compound 80]
Large crabgrass; Rate 140 g/ha
  Plant response rating, Large crabgrass: 0
Large crabgrass; Rate 280 g/ha
  Plant response rating, Large crabgrass: 0
Large crabgrass; Rate 560 g/ha
  Plant response rating, Large crabgrass: 10
Large crabgrass; Rate 1120 g/ha
  Plant response rating, Large crabgrass: 10
Redroot pigweed; Rate 280 g/ha
  Plant response rating, Redroot pigweed: 0
Redroot pigweed; Rate 560 g/ha
  Plant response rating, Redroot pigweed: 50
Redroot pigweed; Rate 1120 g/ha
  Plant response rating, Redroot pigweed: 80
Common ragweed [4]; Rate 140 g/ha
  Plant response rating Common ragweed: 0
Common ragweed [4]; Rate 280 g/ha
  Plant response rating Common ragweed: 0
Common ragweed [4]; Rate 560 g/ha
  Plant response rating Common ragweed: 5
Common ragweed [4]; Rate 1120 g/ha
  Plant response rating Common ragweed: 5
corn; Rate 140 g/ha
  Plant response rating, Corn: 0
corn; Rate 280 g/ha
  Plant response rating, Corn: 0
corn; Rate 560 g/ha
  Plant response rating, Corn: 0
corn; Rate 1120 g/ha
  Plant response rating, Corn: 0
Eastern black nightshade; Rate 140 g/ha
  Plant response rating E. blacknightsh: 0
Eastern black nightshade; Rate 280 g/ha
  Plant response rating E. blacknightsh: 5
Eastern black nightshade; Rate 560 g/ha
  Plant response rating E. blacknightsh: 50
Eastern black nightshade; Rate 1120 g/ha
  Plant response rating E. blacknightsh: 60
Surinam grass; Rate 140 g/ha
  Plant response rating, Surinam grass: 0
Surinam grass; Rate 280 g/ha
  Plant response rating, Surinam grass: 0
Surinam grass; Rate 560 g/ha
  Plant response rating, Surinam grass: 0
Surinam grass; Rate 1120 g/ha
  Plant response rating, Surinam grass: 10
Fall panicum; Rate 140 g/ha
  Plant response rating Fall panicum: 0
Fall panicum; Rate 280 g/ha
  Plant response rating Fall panicum: 0
Fall panicum; Rate 560 g/ha
  Plant response rating Fall panicum: 0
Fall panicum; Rate 1120 g/ha
  Plant response rating Fall panicum: 10
barnyardgrass; Rate 140 g/ha
  Plant response rating, Barnyardgrass: 0
barnyardgrass; Rate 280 g/ha
  Plant response rating, Barnyardgrass: 10
barnyardgrass; Rate 560 g/ha
  Plant response rating, Barnyardgrass: 20
barnyardgrass; Rate 1120 g/ha
  Plant response rating, Barnyardgrass: 20
soybean; Rate 140 g/ha
  Plant response rating, Soybean: 5
soybean; Rate 280 g/ha
  Plant response rating, Soybean: 20
soybean; Rate 560 g/ha
  Plant response rating, Soybean: 60
Purple nutsedge; Rate 140 g/ha
  Plant response rating, Purple nutsedge: 0
Purple nutsedge; Rate 280 g/ha
  Plant response rating, Purple nutsedge: 0
Purple nutsedge; Rate 560 g/ha
  Plant response rating, Purple nutsedge: 0
Purple nutsedge; Rate 1120 g/ha
  Plant response rating, Purple nutsedge: 0
lambsquarters; Rate 140 g/ha
  Plant response rating, Lambsquarters: 0
lambsquarters; Rate 280 g/ha
  Plant response rating, Lambsquarters: 15
lambsquarters; Rate 560 g/ha
  Plant response rating, Lambsquarters: 20
lambsquarters; Rate 1120 g/ha
  Plant response rating, Lambsquarters: 20

## CCN(CC)C(=O)n1oc(=O)n(-c2ccc(OC)cc2)c1=O [Compound 1]
crabgrass; Postemergence, Rate 1000 g/ha
  Plant response rating, Crabgrass: 5
crabgrass; Pre-emergence, Rate 2000 g/ha
  Plant response rating, Crabgrass: 9
